# According to ChEMBL document CHEMBL5463728, “Data for DCP probe BAY-6096” (2023):
# How the values were obtained:
# [1] = biological target: D(3) dopamine receptor (Homo sapiens) (UniProt P35462); settings: Compound concentration 10.0 uM
# D(2) dopamine receptor = D(2) dopamine receptor (Homo sapiens, UniProt P14416); settings: Compound concentration 10.0 uM
# [2] = biological target: Sigma intracellular receptor 2 (Homo sapiens) (UniProt Q5BJF2); settings: Compound concentration 10.0 uM
# [3] = biological target: Muscarinic acetylcholine receptor M5 (Homo sapiens) (UniProt P08912); settings: Compound concentration 10.0 uM
# [4] = biological target: 5-hydroxytryptamine receptor 7 (Homo sapiens) (UniProt P34969); settings: Compound concentration 10.0 uM
# [5] = biological target: Alpha-1B adrenergic receptor (Homo sapiens) (UniProt P35368); settings: Compound concentration 10.0 uM
# [6] = biological target: Alpha-1A adrenergic receptor (Homo sapiens) (UniProt P35348); settings: Compound concentration 10.0 uM
# [7] = biological target: T1, 5-hydroxytryptamine receptor 2C (Homo sapiens) (UniProt P28335); settings: Compound concentration 10.0 uM
# T1 sequence (whole entry): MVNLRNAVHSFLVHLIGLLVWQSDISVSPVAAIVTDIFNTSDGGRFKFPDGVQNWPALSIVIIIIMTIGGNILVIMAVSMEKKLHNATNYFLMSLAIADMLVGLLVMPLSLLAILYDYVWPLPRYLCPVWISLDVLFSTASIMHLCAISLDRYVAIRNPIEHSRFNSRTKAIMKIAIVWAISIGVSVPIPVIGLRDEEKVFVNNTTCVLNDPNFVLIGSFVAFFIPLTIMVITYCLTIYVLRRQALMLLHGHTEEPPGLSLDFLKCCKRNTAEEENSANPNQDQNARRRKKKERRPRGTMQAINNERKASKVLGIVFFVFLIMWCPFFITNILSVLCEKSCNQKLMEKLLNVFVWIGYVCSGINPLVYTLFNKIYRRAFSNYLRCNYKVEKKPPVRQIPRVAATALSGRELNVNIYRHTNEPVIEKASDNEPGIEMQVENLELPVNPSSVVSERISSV
# [8] = biological target: 5-hydroxytryptamine receptor 1B (Homo sapiens) (UniProt P28222); settings: Compound concentration 10.0 uM
# [9] = biological target: Alpha-2C adrenergic receptor (Homo sapiens) (UniProt P18825); settings: Compound concentration 10.0 uM
# [10] = biological target: Muscarinic acetylcholine receptor M3 (Homo sapiens) (UniProt P20309); settings: Compound concentration 10.0 uM
# [11] = biological target: Histamine H4 receptor (Homo sapiens) (UniProt Q9H3N8); settings: Compound concentration 10.0 uM
# [12] = biological target: 5-hydroxytryptamine receptor 5A (Homo sapiens) (UniProt P47898); settings: Compound concentration 10.0 uM
# [13] = biological target: Alpha-2A adrenergic receptor (Homo sapiens) (UniProt P08913); settings: Compound concentration 10.0 uM
# [14] = biological target: 5-hydroxytryptamine receptor 2B (Homo sapiens) (UniProt P41595); settings: Compound concentration 10.0 uM
# [15] = biological target: Kappa-type opioid receptor (Homo sapiens) (UniProt P41145); settings: Compound concentration 10.0 uM
# [16] = biological target: Mu-type opioid receptor (Homo sapiens) (UniProt P35372); settings: Compound concentration 10.0 uM
# [17] = biological target: Delta-type opioid receptor (Homo sapiens) (UniProt P41143); settings: Compound concentration 10.0 uM
# [18] = biological target: Sigma non-opioid intracellular receptor 1 (Homo sapiens) (UniProt Q99720); settings: Compound concentration 10.0 uM
# [19] = biological target: 5-hydroxytryptamine receptor 2A (Homo sapiens) (UniProt P28223); settings: Compound concentration 10.0 uM
# [20] = biological target: Alpha-2C adrenergic receptor (Homo sapiens, UniProt P18825); experiment: Adrenoceptor reporter cell assay (ADRA2C); assay type: functional
# [21] = biological target: Alpha-2A adrenergic receptor (Homo sapiens, UniProt P08913); experiment: Adrenoceptor reporter cell assay (ADRA2A); assay type: functional
# [22] = biological target: T2, 5-hydroxytryptamine receptor 1A (Homo sapiens) (UniProt P08908); settings: Compound concentration 10.0 uM
# T2 sequence (whole entry): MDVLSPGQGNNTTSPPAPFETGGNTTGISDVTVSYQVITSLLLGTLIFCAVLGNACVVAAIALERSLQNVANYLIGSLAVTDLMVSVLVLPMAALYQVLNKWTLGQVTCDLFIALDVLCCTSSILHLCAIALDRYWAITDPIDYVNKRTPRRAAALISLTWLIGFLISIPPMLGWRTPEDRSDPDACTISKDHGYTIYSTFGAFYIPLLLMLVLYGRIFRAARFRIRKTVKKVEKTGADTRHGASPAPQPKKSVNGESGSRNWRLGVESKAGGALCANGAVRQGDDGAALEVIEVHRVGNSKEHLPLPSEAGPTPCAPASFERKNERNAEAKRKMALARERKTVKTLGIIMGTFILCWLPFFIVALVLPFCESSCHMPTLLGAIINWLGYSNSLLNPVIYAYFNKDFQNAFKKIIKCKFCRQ
# [23] = biological target: Sodium-dependent noradrenaline transporter (Homo sapiens) (UniProt P23975); settings: Compound concentration 10.0 uM
# [24] = biological target: GABA-A receptor; anion channel (Rattus norvegicus) (UniProt O09028+P15431+P18506+P18508+P19969+P20236+P23574+P23576+P28471+P28473+P30191+P62813+P63079+P63138+Q91ZM7+Q9ES14); settings: Compound concentration 10.0 uM
# [25] = biological target: 5-hydroxytryptamine receptor 3A (Homo sapiens) (UniProt P46098); settings: Compound concentration 10.0 uM
# [26] = biological target: Sodium-dependent serotonin transporter (Homo sapiens) (UniProt P31645); settings: Compound concentration 10.0 uM
# [27] = biological target: 5-hydroxytryptamine receptor 1D (Homo sapiens) (UniProt P28221); settings: Compound concentration 10.0 uM
# [28] = biological target: Beta-3 adrenergic receptor (Homo sapiens, UniProt P13945); settings: Compound concentration 10.0 uM
# [29] = biological target: Alpha-1D adrenergic receptor (Homo sapiens) (UniProt P25100); settings: Compound concentration 10.0 uM
# Chain of Sodium-dependent noradrenaline transporter (Homo sapiens) (P23975 whole entry): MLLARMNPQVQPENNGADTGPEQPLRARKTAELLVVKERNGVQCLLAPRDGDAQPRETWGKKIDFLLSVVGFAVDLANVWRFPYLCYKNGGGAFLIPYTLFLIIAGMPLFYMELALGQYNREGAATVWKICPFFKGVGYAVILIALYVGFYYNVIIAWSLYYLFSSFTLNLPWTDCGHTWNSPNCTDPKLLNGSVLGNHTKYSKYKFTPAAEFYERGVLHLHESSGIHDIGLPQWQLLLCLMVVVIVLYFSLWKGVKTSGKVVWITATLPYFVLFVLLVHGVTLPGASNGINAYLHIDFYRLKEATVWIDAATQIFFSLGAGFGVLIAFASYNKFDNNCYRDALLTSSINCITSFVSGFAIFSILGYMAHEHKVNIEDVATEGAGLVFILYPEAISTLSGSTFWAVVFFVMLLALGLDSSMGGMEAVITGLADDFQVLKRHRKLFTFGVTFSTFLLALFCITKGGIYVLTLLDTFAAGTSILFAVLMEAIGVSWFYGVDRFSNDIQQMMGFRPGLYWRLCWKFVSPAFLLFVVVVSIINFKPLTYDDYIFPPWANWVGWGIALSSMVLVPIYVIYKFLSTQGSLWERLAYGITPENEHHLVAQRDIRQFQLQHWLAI
# Chain of Alpha-1A adrenergic receptor (Homo sapiens) (P35348 whole entry): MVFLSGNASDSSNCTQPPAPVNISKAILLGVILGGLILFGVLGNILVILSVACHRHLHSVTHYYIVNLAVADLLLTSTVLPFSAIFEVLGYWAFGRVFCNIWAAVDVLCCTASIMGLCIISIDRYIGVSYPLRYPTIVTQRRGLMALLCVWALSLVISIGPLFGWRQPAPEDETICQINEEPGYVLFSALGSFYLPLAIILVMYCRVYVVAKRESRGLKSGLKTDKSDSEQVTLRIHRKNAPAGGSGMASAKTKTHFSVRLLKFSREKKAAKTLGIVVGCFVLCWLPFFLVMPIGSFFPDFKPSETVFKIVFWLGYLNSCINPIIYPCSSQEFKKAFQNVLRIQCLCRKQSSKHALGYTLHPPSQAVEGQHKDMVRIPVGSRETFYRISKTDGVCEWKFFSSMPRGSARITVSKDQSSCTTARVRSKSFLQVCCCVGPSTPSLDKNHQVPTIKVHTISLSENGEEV
# Chain of 5-hydroxytryptamine receptor 5A (Homo sapiens) (P47898 whole entry): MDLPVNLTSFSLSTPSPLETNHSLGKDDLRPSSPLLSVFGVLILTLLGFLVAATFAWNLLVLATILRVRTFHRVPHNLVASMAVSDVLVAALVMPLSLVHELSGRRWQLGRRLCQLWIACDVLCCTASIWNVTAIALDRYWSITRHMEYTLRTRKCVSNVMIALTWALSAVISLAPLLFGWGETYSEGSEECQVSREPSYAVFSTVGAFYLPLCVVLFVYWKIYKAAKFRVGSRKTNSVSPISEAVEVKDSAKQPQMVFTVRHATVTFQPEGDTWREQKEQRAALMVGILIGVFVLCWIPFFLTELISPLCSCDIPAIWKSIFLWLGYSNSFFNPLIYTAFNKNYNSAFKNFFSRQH
# Chain of 5-hydroxytryptamine receptor 2A (Homo sapiens) (P28223 whole entry): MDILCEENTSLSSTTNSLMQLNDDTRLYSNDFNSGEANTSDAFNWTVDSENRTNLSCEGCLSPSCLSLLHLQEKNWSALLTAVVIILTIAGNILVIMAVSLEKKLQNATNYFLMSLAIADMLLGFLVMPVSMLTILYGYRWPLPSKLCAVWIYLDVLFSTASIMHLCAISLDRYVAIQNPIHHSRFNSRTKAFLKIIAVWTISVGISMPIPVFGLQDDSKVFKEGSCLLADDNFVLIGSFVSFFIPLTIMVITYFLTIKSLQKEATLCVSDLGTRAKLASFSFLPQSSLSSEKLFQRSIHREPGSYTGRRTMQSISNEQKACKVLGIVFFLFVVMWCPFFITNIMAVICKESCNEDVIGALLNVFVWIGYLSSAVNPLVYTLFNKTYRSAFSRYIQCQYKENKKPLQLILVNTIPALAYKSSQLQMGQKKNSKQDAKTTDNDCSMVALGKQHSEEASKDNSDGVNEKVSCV
# Chain of Kappa-type opioid receptor (Homo sapiens) (P41145 whole entry): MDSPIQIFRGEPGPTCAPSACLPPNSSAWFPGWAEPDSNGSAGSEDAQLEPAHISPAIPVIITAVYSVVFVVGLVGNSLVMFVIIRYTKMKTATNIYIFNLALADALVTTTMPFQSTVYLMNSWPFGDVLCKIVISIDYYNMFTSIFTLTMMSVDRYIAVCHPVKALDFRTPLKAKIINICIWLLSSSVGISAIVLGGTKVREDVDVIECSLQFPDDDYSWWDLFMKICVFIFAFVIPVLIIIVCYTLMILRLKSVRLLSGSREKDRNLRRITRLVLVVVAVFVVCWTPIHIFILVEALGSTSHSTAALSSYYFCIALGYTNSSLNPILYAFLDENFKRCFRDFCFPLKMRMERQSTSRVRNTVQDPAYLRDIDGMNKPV
# Chain of 5-hydroxytryptamine receptor 3A (Homo sapiens) (P46098 whole entry): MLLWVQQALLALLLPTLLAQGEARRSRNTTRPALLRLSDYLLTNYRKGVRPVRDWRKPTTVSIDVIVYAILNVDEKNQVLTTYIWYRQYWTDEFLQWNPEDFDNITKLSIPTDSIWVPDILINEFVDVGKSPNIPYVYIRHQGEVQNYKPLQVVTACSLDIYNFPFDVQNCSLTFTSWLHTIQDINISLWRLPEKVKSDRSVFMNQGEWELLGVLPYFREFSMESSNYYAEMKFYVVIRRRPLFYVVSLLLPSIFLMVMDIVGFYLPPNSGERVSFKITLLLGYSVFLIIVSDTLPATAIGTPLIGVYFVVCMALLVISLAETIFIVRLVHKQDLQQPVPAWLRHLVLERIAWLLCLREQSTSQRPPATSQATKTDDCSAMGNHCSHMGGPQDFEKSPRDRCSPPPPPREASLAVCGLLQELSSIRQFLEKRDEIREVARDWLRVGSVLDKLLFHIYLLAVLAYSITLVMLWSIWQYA
# Chain of Alpha-1B adrenergic receptor (Homo sapiens) (P35368 whole entry): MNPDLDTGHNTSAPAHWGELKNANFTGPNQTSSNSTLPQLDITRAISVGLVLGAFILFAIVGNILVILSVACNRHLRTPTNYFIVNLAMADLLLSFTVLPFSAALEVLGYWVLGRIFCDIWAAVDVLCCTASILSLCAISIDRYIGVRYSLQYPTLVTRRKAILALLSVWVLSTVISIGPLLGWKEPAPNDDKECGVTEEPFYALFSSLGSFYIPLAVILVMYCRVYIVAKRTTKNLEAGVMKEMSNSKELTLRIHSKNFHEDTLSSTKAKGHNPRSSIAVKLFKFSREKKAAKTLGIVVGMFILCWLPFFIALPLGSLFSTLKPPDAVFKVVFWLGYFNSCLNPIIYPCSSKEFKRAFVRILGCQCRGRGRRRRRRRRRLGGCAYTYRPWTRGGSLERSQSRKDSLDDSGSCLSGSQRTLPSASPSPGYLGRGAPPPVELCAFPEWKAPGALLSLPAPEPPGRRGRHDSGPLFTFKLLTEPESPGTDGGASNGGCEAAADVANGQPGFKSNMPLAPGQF
# Chain of Histamine H4 receptor (Homo sapiens) (Q9H3N8 whole entry): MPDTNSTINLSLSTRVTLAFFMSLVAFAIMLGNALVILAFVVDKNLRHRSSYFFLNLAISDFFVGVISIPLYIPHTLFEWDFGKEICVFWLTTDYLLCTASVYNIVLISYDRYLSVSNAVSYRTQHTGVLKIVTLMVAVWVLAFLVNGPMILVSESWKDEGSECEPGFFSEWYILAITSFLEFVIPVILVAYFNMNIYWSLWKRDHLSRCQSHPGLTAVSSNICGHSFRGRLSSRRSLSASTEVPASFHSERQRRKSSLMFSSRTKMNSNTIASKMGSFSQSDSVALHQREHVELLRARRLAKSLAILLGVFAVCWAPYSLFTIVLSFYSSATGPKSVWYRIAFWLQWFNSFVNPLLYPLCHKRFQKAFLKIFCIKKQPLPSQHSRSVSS
# Chain of Alpha-2C adrenergic receptor (Homo sapiens) (P18825 whole entry): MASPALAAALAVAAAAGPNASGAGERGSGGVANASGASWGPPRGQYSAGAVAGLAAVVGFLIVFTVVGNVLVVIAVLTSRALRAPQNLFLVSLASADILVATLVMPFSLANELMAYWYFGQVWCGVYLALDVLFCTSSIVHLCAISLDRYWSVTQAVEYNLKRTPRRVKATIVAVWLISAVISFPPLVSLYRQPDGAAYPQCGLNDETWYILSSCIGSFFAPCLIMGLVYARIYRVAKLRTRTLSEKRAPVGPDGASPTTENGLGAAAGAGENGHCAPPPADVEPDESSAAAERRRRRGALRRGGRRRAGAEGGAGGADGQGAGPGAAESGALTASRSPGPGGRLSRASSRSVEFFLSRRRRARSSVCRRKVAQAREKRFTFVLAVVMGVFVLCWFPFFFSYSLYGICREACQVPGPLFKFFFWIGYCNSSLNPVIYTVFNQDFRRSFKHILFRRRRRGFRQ
# Chain of 5-hydroxytryptamine receptor 1D (Homo sapiens) (P28221 whole entry): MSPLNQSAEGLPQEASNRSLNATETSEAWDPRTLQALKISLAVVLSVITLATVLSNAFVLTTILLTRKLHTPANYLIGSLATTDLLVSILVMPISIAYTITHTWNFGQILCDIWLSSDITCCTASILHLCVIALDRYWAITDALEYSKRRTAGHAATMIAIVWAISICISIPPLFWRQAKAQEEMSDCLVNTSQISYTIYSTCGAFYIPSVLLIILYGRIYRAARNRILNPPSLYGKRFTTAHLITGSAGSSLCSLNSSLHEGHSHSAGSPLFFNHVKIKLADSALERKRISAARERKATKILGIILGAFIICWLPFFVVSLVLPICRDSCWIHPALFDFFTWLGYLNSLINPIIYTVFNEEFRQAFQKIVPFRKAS
# Chain of D(2) dopamine receptor (P14416 whole entry): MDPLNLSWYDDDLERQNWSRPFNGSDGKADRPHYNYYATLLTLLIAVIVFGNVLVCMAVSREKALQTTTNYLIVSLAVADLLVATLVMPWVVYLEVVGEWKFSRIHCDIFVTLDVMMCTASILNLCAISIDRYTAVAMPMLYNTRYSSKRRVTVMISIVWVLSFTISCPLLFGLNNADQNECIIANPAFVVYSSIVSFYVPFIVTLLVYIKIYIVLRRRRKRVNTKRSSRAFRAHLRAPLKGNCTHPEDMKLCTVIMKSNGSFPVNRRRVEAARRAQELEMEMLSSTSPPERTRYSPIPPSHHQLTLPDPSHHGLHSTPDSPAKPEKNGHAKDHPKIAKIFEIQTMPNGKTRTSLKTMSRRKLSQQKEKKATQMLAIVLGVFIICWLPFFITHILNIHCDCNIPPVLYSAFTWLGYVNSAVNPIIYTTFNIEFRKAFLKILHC
Structure (SMILES),inhibition [1],inhibition (D(2) dopamine receptor),inhibition [2],inhibition [3],inhibition [4],inhibition [5],inhibition [6],inhibition [7],inhibition [8],inhibition [9],inhibition [10],inhibition [11],inhibition [12],inhibition [13],inhibition [14],inhibition [15],inhibition [16],inhibition [17],inhibition [18],inhibition [19],other results
CNc1cc[n+](CCNC(=O)c2ccn3c(-c4c(C)noc4C)cnc3c2)cc1,8.88%,10.6%,27.5%,-5%,5.99%,0.79%,31.1%,-3.48%,9.81%,41.3%,0.75%,3.02%,3.22%,49.5%,4.13%,32.3%,6.53%,20.1%,35.5%,17%,IC50 [20]: > 11.8 µM (not active); IC50 [21]: 10 µM (not active); inhibition [22]: 33.4%; inhibition [23]: -2.68%; inhibition [24]: 20.9%; inhibition [25]: 6.7%; inhibition [26]: 7.14%; inhibition [27]: 19.5%; inhibition [28]: 1.07%; inhibition [29]: 1.62%
Cc1noc(C)c1-c1cnc2cc(C(=O)NCCC[n+]3ccc(N(C)C)cc3)ccn12,-6.53%,-1.11%,14.1%,-1.12%,3.4%,1.7%,9.17%,-5.48%,-0.88%,18.3%,18%,15.9%,-2.29%,16.1%,10.3%,28.2%,18.9%,-5.36%,25.1%,-4.21%,IC50 [20]: > 10 µM (not active); IC50 [21]: > 10 µM (not active); inhibition [22]: 81.7%; inhibition [23]: 1.75%; inhibition [24]: -7.67%; inhibition [25]: 4.99%; inhibition [26]: 1.28%; inhibition [27]: 24.2%; inhibition [28]: -3.02%; inhibition [29]: 0.59%
